# Assay results published in patent US20190200664A1, “WATER AND FAT SOLUBLE MICRONUTIENT STABILIZED PARTICLES” (Massachusetts Institute of Technology, priority 2018, published 2019).
# Assay: Iron oxidation (ferrous to ferric) during boiling in water in an open container
# Assay type: physicochemical
# Conditions: 2 hours
# Protocol: Dry micronutrient-loaded MPs were dispersed in water and then heated at 100° C. for 2 hours before being centrifuged at 4000 rpm for 5 min. Chemically stable MNs in both the supernatant and the MPs were quantified using the methods as described above. The stability percentage equals to the ratio of stable MN after heating as determined by HPLC to the actual loading content of the MN in the MPs. For samples in non-encapsulated form, they were either dissolved in water (water soluble vitamins such as vitamins B9 and B12) or dispersed in water (fat soluble vitamins such as vitamins A and D) before being heated for 2 hrs. Iron-loaded HA-EPO-MPs were dispersed in water and then heated at 100° C. for 2 hours and analyzed for ferrous and ferric content as described above.
# It was investigated how iron encapsulation in HA-EPO-MPs impacts oxidation during boiling in water in an open container, since both higher temperatures and atmospheric exposure will accelerate iron oxidation. For encapsulated iron, less than 2% oxidizes to ferric iron, and for non-encapsulated iron over 15% is oxidized to ferric iron (FIG. 4D).
substance,measurement,value
ferrous sulfate [Non-Encapsulated Fe],iron oxidized to ferric iron,over 15%
